Experimental data published in patent publication US20090048258A1, “Amide Compound” (priority 2005, published 2009).
pIC50: −log10 of the molar value. Like-named read-outs stand apart in the source and are kept apart here.

Target: T1, Human DGAT1 (Homo sapiens, UniProt O75907)
T1 construct: my translation of the primer: M-G-DYKDDDD-GDRGSSRRR) (N); made in house; host or cells: Sf9 insect cells (recombinant baculovirus BAC-DGAT1, pFASTBAC1); microsome fraction
T1 sequence (O75907 1-488): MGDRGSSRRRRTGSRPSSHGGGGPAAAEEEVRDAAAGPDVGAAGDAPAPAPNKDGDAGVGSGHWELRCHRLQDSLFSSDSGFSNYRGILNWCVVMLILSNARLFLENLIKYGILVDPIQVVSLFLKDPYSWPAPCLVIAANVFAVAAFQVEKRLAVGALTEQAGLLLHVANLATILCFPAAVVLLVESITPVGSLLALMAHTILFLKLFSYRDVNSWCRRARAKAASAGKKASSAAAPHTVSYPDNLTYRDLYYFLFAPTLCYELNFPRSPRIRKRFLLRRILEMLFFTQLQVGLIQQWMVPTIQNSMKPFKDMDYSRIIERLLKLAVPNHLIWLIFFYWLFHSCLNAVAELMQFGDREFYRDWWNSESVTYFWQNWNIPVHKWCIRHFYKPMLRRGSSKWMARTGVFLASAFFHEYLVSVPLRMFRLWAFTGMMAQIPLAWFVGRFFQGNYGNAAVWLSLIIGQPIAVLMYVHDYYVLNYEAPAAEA
Test: DGAT inhibitory activity: [14C]-triglyceride synthesis by DGAT1 high expression Sf9 microsome
Assay type: biochemical
Settings: 25 μM [14C]-Oleoyl-CoA, 32° C., 15 min, read-out: DGAT inhibitory activity (according to IC50)
Method in brief: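 DGAT1 was overexpressed from recombinant baculovirus in Sf9 cells, and microsomes from these cells were the enzyme source. Reactions ran in 100 mM Tris-HCl pH 7.5, 250 mM sucrose, 150 mM MgCl2 and 0.01% BSA. [14C]-triglyceride was extracted into chloroform, separated by TLC and quantified by imaging plate, with inhibition calculated against control and blank (no microsome) counts.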

[1] = Table 2, 25 μM dioleoylglycerol
[2] = Table 1, 25 μM dioleoylglycerol

| pIC50 [1] | pIC50 [2] | Compound |
| --- | --- | --- |
| 6.30 to 7.30 | – | O=C(CCC(=O)c1ccc2c(c1)CCO2)Nc1cc(-c2cccnc2)cc(-c2ccccc2)n1 [Example 114, 4-(2,3-dihydro-1-benzofuran-5-yl)-4-oxo-N-(6′-phenyl-3,4′-bipyridine-2′-yl)butanamide] |
| 6.30 to 7.30 | – | CCOc1ccc(C(=O)CCC(=O)Nc2cc(-c3ccncc3)c3ccccc3n2)cc1OCC [Example 91, 4-(3,4-diethoxyphenyl)-4-oxo-N-[4-(pyridin-4-yl)quinolin-2-yl]butanamide] |
| – | 6.30 to 7.30 | O=C(CCC(=O)c1ccc(OC(F)(F)F)cc1)Nc1nc(-c2ccccc2)c(Cc2ccccc2)s1 [Example 28, N-(5-benzyl-4-phenyl-1,3-thiazol-2-yl)-4-oxo-4-[4-(trifluoromethoxy)phenyl]butanamide] |
| – | 6.30 to 7.30 | CCOc1cccc(C(=O)CCC(=O)Nc2cc(-c3ccccc3)c(Cc3ccccc3)s2)c1 [Example 45, N-(5-benzyl-4-phenyl-2-thienyl)-4-(3-ethoxyphenyl)-4-oxobutanamide] |
| – | 7.30 to 8.00 | COc1ccc(C(=O)CCC(=O)Nc2cc(-c3ccccc3)c(Cc3ccccc3)s2)cc1OC [Example 48, N-(5-benzyl-4-phenyl-2-thienyl)-4-(3,4-dimethoxyphenyl)-4-oxobutanamide] |
| 7.30 to 8.00 | – | COC(=O)CCc1cccc(-c2cc(NC(=O)CCC(=O)c3ccc4c(c3)CCO4)nc(-c3ccccc3)c2)c1 [Example 173, methyl 3-[3-(2-{[4-(2,3-dihydro-1-benzofuran-5-yl)-4-oxobutanoyl]amino}-6-phenylpyridin-4-yl)phenyl]propanoate] |
| – | ≥ 8.00 | CCOc1ccc(C(=O)CCC(=O)Nc2nc(-c3ccccc3)c(Cc3ccccc3)s2)cc1Cl [Example 36, N-(5-benzyl-4-phenyl-1,3-thiazol-2-yl)-4-(3-chloro-4-ethoxyphenyl)-4-oxobutanamide] |
| 5.00 to 6.30 | – | CCOc1ccc(C(=O)CCC(=O)Nc2cc3ccccc3c(N3CCCCC3)n2)cc1OCC [Example 85, 4-(3,4-diethoxyphenyl)-4-oxo-N-[1-(piperidin-1-yl)isoquinolin-3-yl]butanamide] |
| – | 6.30 to 7.30 | CCOC(=O)c1sc(NC(=O)CCC(=O)c2ccc(OCC)c(OCC)c2)cc1-c1ccccc1 [Example 52, ethyl 5-{[4-(3,4-diethoxyphenyl)-4-oxobutanoyl]amino}-3-phenylthiophene-2-carboxylate] |
| 6.30 to 7.30 | – | CCOc1ccc(C(=O)CCC(=O)Nc2nc3ccccc3c(-c3ccccc3)c2C)cc1OCC [Example 88, 4-(3,4-diethoxyphenyl)-N-(3-methyl-4-phenylquinolin-2-yl)-4-oxobutanamide] |
| 7.30 to 8.00 | – | COc1ccccc1-c1cc(NC(=O)CCC(=O)c2ccc3c(c2)CCO3)nc(-c2ccccc2)c1 [Example 178, 4-(2,3-dihydro-1-benzofuran-5-yl)-N-[4-(2-methoxyphenyl)-6-phenylpyridin-2-yl]-4-oxobutanamide] |
| 5.00 to 6.30 | – | CCCCCC/C=C/c1cc(NC(=O)CCC(=O)c2ccc3c(c2)CCO3)nc(-c2ccccc2)c1 [Example 184, 4-(2,3-dihydro-1-benzofuran-5-yl)-N-{4-[(1E)-octa-1-en-1-yl]-6-phenylpyridin-2-yl}-4-oxobutanamide] |
| 5.00 to 6.30 | – | Cn1cc(-c2cc(NC(=O)CCC(=O)c3ccc4c(c3)CCO4)nc(-c3ccccc3)c2)cn1 [Example 153, 4-(2,3-dihydro-1-benzofuran-5-yl)-N-[4-(1-methyl-1H-pyrazol-4-yl)-6-phenylpyridin-2-yl]-4-oxobutanamide] |
| – | 6.30 to 7.30 | CCOc1ccc(C(=O)CCC(=O)Nc2cc(-c3ccccc3)nc(-c3ccccc3)n2)cc1OCC [Example 14, 4-(3,4-diethoxyphenyl)-N-(2,6-diphenylpyrimidin-4-yl)-4-oxobutanamide] |
| – | 5.00 to 6.30 | CCOc1ccc(C(=O)CCC(=O)Nc2cc(-c3ccc(OCC(=O)O)cc3)c3ccccc3n2)cc1OCC [Example 23, [4-(2-{[4-(3,4-diethoxyphenyl)-4-oxobutanoyl]amino}quinolin-4-yl)phenoxy]acetic acid] |
| – | 7.30 to 8.00 | CCOc1cc(C)c(C(=O)CCC(=O)Nc2cc(-c3ccccc3)c(Cc3ccccc3)s2)cc1OCC [Example 50, N-(5-benzyl-4-phenyl-2-thienyl) -4-(4,5-diethoxy-2-methylphenyl)-4-oxobutanamide] |
| – | 7.30 to 8.00 | COc1cc2c(cc1C(=O)CCC(=O)Nc1nc(-c3ccccc3)c(Cc3ccccc3)s1)CCCC2 [Example 29, N-(5-benzyl-4-phenyl-1,3-thiazol-2-yl)-4-(3-methoxy-5,6,7,8-tetrahydronaphthalen-2-yl)-4-oxobutanamide] |

| pIC50 [1] | pIC50 [2] | Compound |
| --- | --- | --- |
| – | 6.30 to 7.30 | CCOc1ccc(C(=O)CCC(=O)Nc2cc(-c3ccc(F)cc3)cc(-c3ccccc3)n2)cc1OCC [Example 43, 4-(3,4-diethoxyphenyl)-N-(4-(4-fluorophenyl)-6-phenylpyridin-2-yl)-4-oxobutanamide] |
| 5.00 to 6.30 | – | O=C(O)CCc1cccc(-c2cc(NC(=O)CCC(=O)c3ccc4c(c3)CCO4)nc(-c3ccccc3)c2)c1 [Example 172, 3-[3-(2-{[4-(2,3-dihydro-1-benzofuran-5-yl)-4-oxobutanoyl]amino}-6-phenylpyridin-4-yl)phenyl]propanoic acid] |
| – | 7.30 to 8.00 | CCOc1ccc(C(=O)CCC(=O)Nc2ccn(Cc3ccccc3)c2-c2ccccc2)cc1OCC [Example 19, N-(1-benzyl-2-phenyl-1H-pyrrol-3-yl)-4-(3,4-diethoxyphenyl)-4-oxobutanamide] |
| 6.30 to 7.30 | – | CCOc1ccc(C(=O)CCC(=O)Nc2cc(-c3cccc(C(C)=O)c3)cc(-c3ccccc3)n2)cc1OCC [Example 140, N-[4-(3-acetylphenyl)-6-phenylpyridin-2-yl]-4-(3,4-diethoxyphenyl)-4-oxobutanamide] |
| – | 6.30 to 7.30 | CCCCc1sc(NC(=O)CCC(=O)c2ccc(OCC)c(OCC)c2)cc1-c1ccccc1 [Example 58, N-(5-butyl-4-phenyl-2-thienyl)-4-(3,4-diethoxyphenyl)-4-oxobutanamide] |
| 7.30 to 8.00 | – | O=C(CCC(=O)c1ccc2c(c1)CCO2)Nc1cc(-c2ccccc2O)cc(-c2ccccc2)n1 [Example 177, 4-(2,3-dihydro-1-benzofuran-5-yl)-N-[4-(2-hydroxyphenyl)-6-phenylpyridin-2-yl]-4-oxobutanamide] |
| 7.30 to 8.00 | – | CCOC(=O)/C=C/c1ccc2nc(NC(=O)CCC(=O)c3ccc(OCC)c(OCC)c3)cc(-c3ccc(C)cc3)c2c1 [Example 77, ethyl(2E)-3-[2-{[4-(3,4-diethoxyphenyl)-4-oxobutanoyl]amino}-4-(4-methylphenyl)quinoline-6-yl]acrylate] |
| 5.00 to 6.30 | – | CCOc1ccc(C(=O)CCC(=O)Nc2cc3ccccc3c(-c3ccccc3)n2)cc1OCC [Example 84, 4-(3,4-diethoxyphenyl)-4-oxo-N-(1-phenylisoquinolin-3-yl)butanamide] |
| 6.30 to 7.30 | – | O=C(CCC(=O)c1ccc2c(c1)CCO2)Nc1cc(-c2ccccc2CO)cc(-c2ccccc2)n1 [Example 179, 4-(2,3-dihydro-1-benzofuran-5-yl)-N-{4-[2-(hydroxymethyl)phenyl]-6-phenylpyridin-2-yl}-4-oxobutanamide] |
| 6.30 to 7.30 | – | O=C(CCC(=O)c1ccc2c(c1)CCO2)Nc1cc(-c2ccoc2)cc(-c2ccccc2)n1 [Example 115, 4-(2,3-dihydro-1-benzofuran-5-yl)-N-[4-(3-furyl)-6-phenylpyridin-2-yl]-4-oxobutanamide] |
| 6.30 to 7.30 | – | CC(=O)c1cccc(-c2cc(NC(=O)CCC(=O)c3ccc4c(c3)CCO4)nc(-c3ccccc3)c2)c1 [Example 171, N-[4-(3-acetylphenyl)-6-phenylpyridin-2-yl]-4-(2,3-dihydro-1-benzofuran-5-yl)-4-oxobutanamide] |
| – | 7.30 to 8.00 | CCOc1ccc(C(=O)NCCNC(=O)c2cc(-c3ccccc3)n(-c3ccc(SC)cc3)c2C)cc1 [Example 65, N-{2-[(4-ethoxybenzoyl)amino]ethyl}-2-methyl-1-[4-(methylthio)phenyl]-5-phenyl-1H-pyrrole-3-carboxamide] |
| – | ≥ 8.00 | CCOc1ccc(C(=O)C(C)CC(=O)Nc2nc(-c3ccccc3)c(Cc3ccccc3)s2)cc1OCC (stereo not drawn) [Example 57, N-(5-benzyl-4-phenyl-1,3-thiazol-2-yl)-4-(3,4-diethoxyphenyl)-3-methyl-4-oxobutanamide] |
| 5.00 to 6.30 | – | CCOc1ccc(C(=O)CCC(=O)Nc2cc(-c3ccc(C(=O)OC)cc3)cc(-c3ccccc3)n2)cc1OCC [Example 112, methyl 4-(2-{[4-(3,4-diethoxyphenyl)-4-oxobutanoyl]amino}-6-phenylpyridin-4-yl)benzoate] |
| – | ≥ 8.00 | CCOc1ccc(C(=O)CCC(=O)Nc2cc(-c3ccc(O)cc3)c3ccccc3n2)cc1OCC [Example 22, 4-(3,4-diethoxyphenyl)-N-[4-(4-hydroxyphenyl)quinolin-2-yl]-4-oxobutanamide] |
| 6.30 to 7.30 | – | N#Cc1cccc(-c2cc(NC(=O)CCC(=O)c3ccc4c(c3)CCO4)nc(-c3ccccc3)c2)c1 [Example 163, N-[4-(3-cyanophenyl)-6-phenylpyridin-2-yl]-4-(2,3-dihydro-1-benzofuran-5-yl)-4-oxobutanamide] |
